Results reported in patent publication US12122752B1, “5-(2,4,5-tris(4-chlorophenyl)-1H-imidazol-1-yl)pentanoic acid as an antimicrobial compound” (KING FAISAL UNIVERSITY, priority 2023, dated 2024).

Assays:
Type in all cases: cell-based
Escherichia coli = test: Agar plate disc-diffusion, antibacterial activity by inhibition zone; conditions: gram negative, nutrient agar, 37° C., 48 hours
Experimental: (§1) The agar plate disc-diffusion method was applied. […] The discs were then placed onto the surface of agar plates (nutrient agar for bacteria and Sabouraud's dextrose agar for fungi) seeded with the test organism. Each plate contained 15 mL of the agar medium, previously seeded with 0.2 mL of the broth culture of each organism pregrown for 18 hours. The plates were incubated at 37° C. for 48 hours, and 72 hours for fungi. The inhibition zones was measured in mm. Discs impregnated with DMSO were used as a control, and its inhibition zone was subtracted from the tested compound actual inhibition zone.
(§2) Their antibacterial screened against gram positive bacteria namely Bacillus cereus and Staphylococcus aureus and gram-negative bacterial strains namely Pseudomonas aeruginosa and Escherichia coli, while their antifungal activity screened against Aspergillus flavus and Chrysosporium keratinophilum as shown in Table 1 and 2.

Pseudomonas aeruginosa = test: as above; conditions: gram negative, nutrient agar, 37° C., 48 hours
Experimental: as §1, §2

Bacillus Cereus = test: as above; conditions: gram positive, nutrient agar, 37° C., 48 hours
Experimental: as §1, §2

Staphylococcus aureus = test: as above; conditions: gram positive, nutrient agar, 37° C., 48 hours
Experimental: as §1, §2

[1] = test system: Chrysosporium keratinophilum; test: Agar plate disc-diffusion, antifungal activity by inhibition zone; conditions: Sabouraud's dextrose agar, 72 hours
Experimental: (§3) The agar plate disc-diffusion method was applied. Sterilized filter papers (6 mm in diameter) were wetted with 10 μL of a solution of 5-(2,4,5-tris(4-chlorophenyl)-1H-imidazol-1-yl)pentanoic acid (V) to be tested, containing 10 mg/mL in DMSO, and the discs were allowed to air dry. The discs were then placed onto the surface of agar plates (nutrient agar for bacteria and Sabouraud's dextrose agar for fungi) seeded with the test organism. Each plate contained 15 mL of the agar medium, previously seeded with 0.2 mL of the broth culture of each organism pregrown for 18 hours. The plates were incubated at 37° C. for 48 hours, and 72 hours for fungi. The inhibition zones was measured in mm. Discs impregnated with DMSO were used as a control, and its inhibition zone was subtracted from the tested compound actual inhibition zone.
as §2

Aspergillus flavus = test: as above; conditions: Sabouraud's dextrose agar, 72 hours
Experimental: as §3, §2

different microbes = test: Antimicrobial testing, overall statement; conditions: summary in words of Tables 1 and 2
Experimental: as §3, §2

[2] = A = concentration of comp. = 10,000 μL
[3] = B = concentration of comp. = 30,000 μL
[4] = C = concentration of comp. = 50,000 μL

SMILES: O=C(O)CCCCn1c(-c2ccc(Cl)cc2)nc(-c2ccc(Cl)cc2)c1-c1ccc(Cl)cc1 [V, 5-(2,4,5-tris(4-chlorophenyl)-1H-imidazol-1-yl)pentanoic acid]
- inhibition zone (Escherichia coli; [2]): 27 mm
- inhibition zone (Escherichia coli; [3]): 35 mm
- inhibition zone (Escherichia coli; [4]): 50 mm
- inhibition zone (Pseudomonas aeruginosa; [2]): 25 mm
- inhibition zone (Pseudomonas aeruginosa; [3]): 30 mm
- inhibition zone (Pseudomonas aeruginosa; [4]): 43 mm
- inhibition zone (Bacillus Cereus; [2]): 23 mm
- inhibition zone (Bacillus Cereus; [3]): 25 mm
- inhibition zone (Bacillus Cereus; [4]): 37 mm
- inhibition zone (Staphylococcus aureus; [2]): 18 mm
- inhibition zone (Staphylococcus aureus; [3]): 22 mm
- inhibition zone (Staphylococcus aureus; [4]): 33 mm
- inhibition zone [1, 2]: 25 mm
- inhibition zone [1, 3]: 28 mm
- inhibition zone [1, 4]: 46 mm
- inhibition zone (Aspergillus flavus; [2]): 17 mm
- inhibition zone (Aspergillus flavus; [3]): 22 mm
- inhibition zone (Aspergillus flavus; [4]): 31 mm
- antimicrobials activities against different microbes (different microbes): excellent

SMILES: O=C(O)c1cn(C2CC2)c2cc(N3CCNCC3)c(F)cc2c1=O [Cip., reference compound]
- inhibition zone (Escherichia coli; [2]): 30 mm
- inhibition zone (Escherichia coli; [3]): 39 mm
- inhibition zone (Escherichia coli; [4]): 60 mm
- inhibition zone (Pseudomonas aeruginosa; [2]): 29 mm
- inhibition zone (Pseudomonas aeruginosa; [3]): 30 mm
- inhibition zone (Pseudomonas aeruginosa; [4]): 53 mm
- inhibition zone (Bacillus Cereus; [2]): 29 mm
- inhibition zone (Bacillus Cereus; [3]): 31 mm
- inhibition zone (Bacillus Cereus; [4]): 42 mm
- inhibition zone (Staphylococcus aureus; [2]): 42 mm
- inhibition zone (Staphylococcus aureus; [3]): 44 mm
- inhibition zone (Staphylococcus aureus; [4]): 53 mm
- inhibition zone [1, 2]: 29 mm
- inhibition zone [1, 3]: 30 mm
- inhibition zone [1, 4]: 53 mm
- inhibition zone (Aspergillus flavus; [2]): 29 mm
- inhibition zone (Aspergillus flavus; [3]): 32 mm
- inhibition zone (Aspergillus flavus; [4]): 42 mm
